# Data published in patent publication US20110288116A1, “IAP INHIBITORS” (TETRALOGIC PHARMACEUITCAL CORPORATION, priority 2008, published 2011).
# pKd: −log10 of the molar value.
# Target: T1, cIAP-1 BIR-3 (Homo sapiens, UniProt Q13490)
# T1 construct: "cIAP-1 BIR-3"
# Assay: Fluorescence polarization binding to cIAP-1 BIR-3 (competition with AbuRPF-K(5-Fam)-NH2)
# Conditions: cells marked (cIAP-1): cIAP-1 BIR-3; reported as range class
# Method: (§1) The binding affinities of the compounds are reported as a Kd value. Briefly, various concentrations of test peptides were mixed with 5 nM of the fluorescently labeled peptide (i.e., a mutated N-terminal Smac peptide—AbuRPF-K(5-Fam)-NH2) and 40 nM of the BIR3 for 15 min at RT in […] of 0.1M Potassium Phosphate buffer, pH 7.5 containing […] bovine g-globulin. Following incubation, the polarization values (mP) were measured on a Victor2V (available from PerkinElmer Life Sciences) using a 485 nm excitation filter and a 520 nm emission filter. The reported Kd values are supplied as ranges (A=<0.1 μM, B=0.1 μM to C=>1 μM to 10 μM, D=>10 μM) and, unless otherwise indicated, are the Kd for XIAP BIR-3.
# T1 sequence (Q13490 266-343 limits assumed): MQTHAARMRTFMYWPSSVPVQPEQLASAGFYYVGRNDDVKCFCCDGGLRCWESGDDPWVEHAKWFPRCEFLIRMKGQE
row,pKd,SMILES
1,> 7.00,CCN[C@@H](C)C(=O)N[C@H](C(=O)N1CC[C@H](O)[C@H]1Cc1c[nH]c2ncccc12)C(C)(C)C [AA]
2,< 7.00,CCc1ccc2c(c1)[C@@H](C[C@@H]1C[C@H](O)CN1C(=O)[C@@H](NC(=O)[C@H](C)NC)C1CCCCC1)CN2C(C)=O [BBBB]
3,> 7.00,CN[C@@H](C)C(=O)N[C@H](C(=O)N1CC[C@H](O)[C@H]1Cc1c[nH]c2ncccc12)[C@@H](C)OC [BB]
4,> 7.00,CC[C@H](NC)C(=O)N[C@H](C(=O)N1CC[C@H](O)[C@H]1Cc1c(Cl)[nH]c2cc(F)ccc12)[C@@H](C)OC [BB′]
5,< 7.00,CCN[C@@H](C)C(=O)N[C@H](C(=O)N1C[C@@H](O)C[C@H]1C[C@H]1CN(C(C)=O)c2ccc(CC)cc21)C1CCCCC1 [CCCC]
6,> 7.00,CCN[C@@H](C)C(=O)N[C@H](C(=O)N1CC[C@@H](O)[C@H]1Cc1c(-c2ccc(F)cc2)[nH]c2ccccc12)[C@@H](C)O [CCC]
7,> 7.00,CCN[C@@H](C)C(=O)N[C@H](C(=O)N1CC[C@H](O)[C@H]1Cc1c[nH]c2ncccc12)[C@@H](C)OC [CC]

# Target: T2, XIAP BIR-3 (Homo sapiens, UniProt P98170)
# T2 construct: 40 nM of the BIR3 for 15 min at RT
# Assay: Fluorescence polarization binding to XIAP BIR-3 (competition with AbuRPF-K(5-Fam)-NH2)
# Conditions: XIAP BIR-3 (default where cell does not indicate otherwise); reported as range class
# Method: as §1
# T2 sequence (P98170 241-356 limits assumed): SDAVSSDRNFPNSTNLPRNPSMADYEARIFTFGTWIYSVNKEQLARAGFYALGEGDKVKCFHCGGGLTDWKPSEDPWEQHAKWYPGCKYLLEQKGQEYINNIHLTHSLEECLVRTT
row,SMILES,pKd
1,CCN[C@@H](C)C(=O)N[C@H](C(=O)N1CC[C@H](OC)[C@H]1Cc1cn(C)c2cc(F)ccc12)[C@@H](C)OC [A′],< 7.00
2,CN[C@@H](C)C(=O)N[C@H](C(=O)N1CC[C@@H](O)[C@H]1Cc1c(-c2ccc(F)cc2)[nH]c2ccccc12)C(C)C [BBB],> 7.00
3,CC[C@H](NC)C(=O)N[C@H](C(=O)N1C[C@@H](O)C[C@H]1Cc1c[nH]c2ncccc12)C1CCCCC1 [B],> 7.00
4,CN[C@@H](C)C(=O)N[C@H](C(=O)N1CC[C@H](OC)[C@H]1Cc1cn(C)c2cc(F)ccc12)[C@@H](C)OC [B′],> 7.00
5,"CN[C@@H](C)C(=O)N[C@H](C(=O)N1C[C@@H](O)C[C@H]1Cc1c[nH]c2ncccc12)[C@@H](C)OC [Compound A, N-{1-[4-Hydroxy-2-(1H-pyrrolo[2,3-b]pyridin-3-ylmethyl)-pyrrolidine-1-carbonyl]-2-methoxy-propyl}-2-methylamino-propionamide]",> 7.00
6,CCN[C@@H](CC)C(=O)N[C@H](C(=O)N1CCC[C@H]1Cc1c[nH]c2c1ccc[n+]2[O-])[C@@H](C)OC [Compound R],< 7.00
7,CN[C@@H](C)C(=O)N[C@H](C(=O)N1CCC[C@H]1Cc1c[nH]c2ncccc12)[C@@H](C)OC [D],> 7.00
8,CC[C@H](NC)C(=O)N[C@H](C(=O)N1CC[C@H](OC)[C@H]1Cc1c[nH]c2cc(F)ccc12)[C@@H](C)OC [D′],< 5.00
9,CC[C@H](NC)C(=O)N[C@H](C(=O)N1CC[C@@H](O)[C@H]1Cc1c[nH]c2ccccc12)[C@@H](C)O [EE′],> 7.00
10,CN[C@@H](C)C(=O)N[C@H](C(=O)N1CCC[C@H]1Cc1c[nH]c2ncccc12)C(C)(C)C [E],> 7.00
11,CN[C@@H](C)C(=O)N[C@H](C(=O)N1CC[C@@H](O)[C@H]1Cc1c[nH]c2ccccc12)[C@@H](C)O [FF′],> 7.00
12,CCN[C@@H](C)C(=O)N[C@H](C(=O)N1CC[C@H](OC)[C@H]1Cc1c[nH]c2ncccc12)C(C)(C)C [GG],5.00 to 6.00
13,CCN[C@@H](CC)C(=O)N[C@H](C(=O)N1CCC[C@H]1Cc1c[nH]c2ncccc12)[C@@H](C)OC [G],> 7.00
14,CCN[C@@H](C)C(=O)N[C@H](C(=O)N1CC[C@H](OC)[C@H]1Cc1c[nH]c2cc(F)ccc12)[C@@H](C)OC [G′],< 5.00
15,CCN[C@@H](C)C(=O)N[C@H](C(=O)N1CC[C@H](OC)[C@H]1Cc1c[nH]c2ncccc12)[C@@H](C)OC [HH],5.00 to 6.00
16,CC[C@H](NC)C(=O)N[C@H](C(=O)N1CC[C@@H](O)[C@H]1Cc1c[nH]c2ccccc12)[C@@H](C)OC [HH′],> 7.00
17,CCN[C@@H](C)C(=O)N[C@H](C(=O)N1CCC[C@H]1Cc1c[nH]c2ncccc12)[C@@H](C)OC [H],> 7.00
18,CN[C@@H](C)C(=O)N[C@H](C(=O)N1CC[C@H](OC)[C@H]1Cc1c[nH]c2cc(F)ccc12)C(C)(C)C [H′],< 5.00
19,CCN[C@@H](C)C(=O)N[C@H](C(=O)N1CC[C@H](OC)[C@H]1Cc1c[nH]c2ncccc12)C(C)C [II],5.00 to 6.00
20,CN[C@@H](C)C(=O)N[C@H](C(=O)N1CC[C@@H](O)[C@H]1Cc1c[nH]c2ccccc12)[C@@H](C)OC [II′],> 7.00
21,CCNCC(=O)N[C@H](C(=O)N1CCC[C@H]1Cc1c[nH]c2ncccc12)[C@@H](C)OC [I],< 7.00
22,"CN[C@@H](C)C(=O)N[C@H](C(=O)N1CC[C@H](C)[C@H]1Cc1c[nH]c2cc(F)ccc12)[C@@H](C)OC [JJ, N-{1-{1-2-(6-fluoro-1H-indol-3-ylmethyl)-3-methyl-pyrrolidine-1-carbonyl]-2-methoxy-propyl}-2-methylamino-propionamide]",< 7.00
23,CN[C@@H](C)C(=O)N[C@H](C(=O)N1CC[C@@H](O)[C@H]1Cc1c(-c2ccc(F)cc2)[nH]c2ccccc12)C1CCCCC1 [KKK],< 7.00
24,CC[C@H](NC)C(=O)N[C@H](C(=O)N1CC[C@H](C)[C@H]1Cc1c[nH]c2cc(F)ccc12)[C@@H](C)OC [KK],< 5.00
25,CN[C@@H](CO)C(=O)N[C@H](C(=O)N1CC[C@H](C)[C@H]1Cc1c[nH]c2cc(F)ccc12)[C@@H](C)OC [LL],< 5.00
26,"CN[C@@H](C)C(=O)N[C@H](C(=O)N1CC[C@@H](O)[C@H]1Cc1c[nH]c2ccccc12)C1CCCCC1 [LL′, N-{1-Cyclohexyl-2-[3-hydroxy-2-(1H-indol-3-ylmethyl)-pyrrolidin-1-yl]-2-oxo-ethyl}-2-methylamino-propionamide]",> 7.00
27,CN[C@@H](C)C(=O)N[C@H](C(=O)N1CC[C@H](OC)[C@H]1Cc1c[nH]c2cc(F)ccc12)[C@@H](C)OC [L′],< 5.00
28,CCN[C@@H](C)C(=O)N[C@H](C(=O)N1CC[C@H](C)[C@H]1Cc1c[nH]c2cc(F)ccc12)[C@@H](C)OC [MM],5.00 to 6.00
29,CN[C@@H](C)C(=O)N[C@H](C(=O)N1CC[C@H](C)[C@H]1Cc1c[nH]c2cc(F)ccc12)[C@@H](C)O [NN],5.00 to 6.00
30,CCNCC(=O)N[C@H](C(=O)N1CCC[C@H]1Cc1c[nH]c2ncccc12)C(C)(C)C [N],5.00 to 6.00

# Now from value to molecule:
row,pKd,SMILES
1,> 7.00,"CN[C@@H](C)C(=O)N[C@H](C(=O)N1CC[C@H](O)[C@H]1Cc1c[nH]c2cc(F)ccc12)[C@@H](C)OC (relative stereo) [RR, trans-2R—[N-{1-[2-(6-Fluoro-1H-indol-3-ylmethyl)-3-hydroxy-pyrrolidine-1-carbonyl]-2-methoxy-propyl}]-2-methylamino-propionamide]"
2,< 7.00,CN[C@@H](C)C(=O)N[C@H](C(=O)N1CC[C@H](OC)[C@H]1Cc1c(Cl)[nH]c2cc(F)ccc12)[C@@H](C)O [N′]
3,> 7.00,CN[C@@H](CO)C(=O)N[C@H](C(=O)N1CCC[C@H]1Cc1c[nH]c2ncccc12)C(C)(C)C [O]
4,< 7.00,CC[C@H](NC)C(=O)N[C@H](C(=O)N1CC[C@H](OC)[C@H]1Cc1c(Cl)[nH]c2cc(F)ccc12)[C@@H](C)O [O′]
5,< 5.00,CN[C@@H](CO)C(=O)N[C@H](C(=O)N1CC[C@H](C)[C@H]1Cc1c[nH]c2cc(F)ccc12)[C@@H](C)O [PP]
6,> 7.00,CN[C@@H](C)C(=O)N[C@H](C(=O)N1CCC[C@H]1Cc1c[nH]c2c1ccc[n+]2[O-])[C@@H](C)OC [P]
7,> 7.00,CN[C@@H](C)C(=O)N[C@H](C(=O)N1CC[C@H](OC)[C@H]1Cc1c(Cl)[nH]c2cc(F)ccc12)[C@@H](C)OC [P′]
8,< 5.00,CCN[C@@H](C)C(=O)N[C@H](C(=O)N1CC[C@H](C)[C@H]1Cc1c[nH]c2cc(F)ccc12)[C@@H](C)O [QQ]
9,< 7.00,CCN[C@@H](C)C(=O)N[C@H](C(=O)N1CCC[C@H]1Cc1c[nH]c2c1ccc[n+]2[O-])[C@@H](C)OC [Q]
10,< 7.00,CC[C@H](NC)C(=O)N[C@H](C(=O)N1CC[C@H](OC)[C@H]1Cc1c(Cl)[nH]c2cc(F)ccc12)[C@@H](C)OC [Q′]
11,< 7.00,CCN[C@@H](C)C(=O)N[C@H](C(=O)N1CC[C@H](OC)[C@H]1Cc1c(Cl)[nH]c2cc(F)ccc12)[C@@H](C)OC [R′]
12,> 7.00,CN[C@@H](C)C(=O)N[C@H](C(=O)N1CCC[C@H]1Cc1c[nH]c2c1ccc[n+]2[O-])C(C)(C)C [S]
13,5.00 to 6.00,CN[C@@H](CO)C(=O)N[C@H](C(=O)N1CC[C@H](OC)[C@H]1Cc1c(Cl)[nH]c2cc(F)ccc12)[C@@H](C)OC [S′]
14,> 7.00,CC[C@H](NC)C(=O)N[C@H](C(=O)N1CC[C@H](O)[C@H]1Cc1c[nH]c2cc(F)ccc12)[C@@H](C)OC [TT]
15,> 7.00,CC[C@H](NC)C(=O)N[C@H](C(=O)N1CCC[C@H]1Cc1cn(C)c2ncccc12)[C@@H](C)OC [T]
16,> 7.00,CN[C@@H](C)C(=O)N[C@H](C(=O)N1CC[C@H](O)[C@H]1Cc1c[nH]c2cc(F)ccc12)C(C)(C)C [UU]
17,> 7.00,CN[C@@H](C)C(=O)N[C@H](C(=O)N1CCC[C@H]1Cc1cn(C)c2ncccc12)[C@@H](C)OC [U]
18,> 7.00,CC[C@H](NC)C(=O)N[C@H](C(=O)N1CC[C@H](O)[C@H]1Cc1c[nH]c2cc(F)ccc12)C(C)(C)C [VV]
19,> 7.00,CN[C@@H](C)C(=O)N[C@H](C(=O)N1CC[C@H](O)[C@H]1Cc1cn(C)c2cc(F)ccc12)[C@@H](C)OC [YY]
20,> 7.00,CN[C@@H](C)C(=O)N[C@H](C(=O)N1CCC[C@H]1Cc1c(-c2ccccc2)n(C)c2ncccc12)[C@@H](C)OC [Y]
21,> 7.00,CCN[C@@H](C)C(=O)N[C@H](C(=O)N1CC[C@H](O)[C@H]1Cc1cn(C)c2cc(F)ccc12)[C@@H](C)OC [ZZ]
